Tests used:
organ transplantation = details: Changelian et al., 2003; cited from earlier work
JAK3 = target: T1, JAK3 (Homo sapiens, UniProt P52333); experiment: Kinobeads assay, JAK3 (dot blot detection); type: binding; details: mixed Molt4/Ramos lysate
T1 construct: endogenous in cells; host or cells: Molt4 (ATCC CRL-1582) and Ramos (ATCC CRL-1596) cell lysate, mixed 1:2
T1 sequence (P52333 1-1124): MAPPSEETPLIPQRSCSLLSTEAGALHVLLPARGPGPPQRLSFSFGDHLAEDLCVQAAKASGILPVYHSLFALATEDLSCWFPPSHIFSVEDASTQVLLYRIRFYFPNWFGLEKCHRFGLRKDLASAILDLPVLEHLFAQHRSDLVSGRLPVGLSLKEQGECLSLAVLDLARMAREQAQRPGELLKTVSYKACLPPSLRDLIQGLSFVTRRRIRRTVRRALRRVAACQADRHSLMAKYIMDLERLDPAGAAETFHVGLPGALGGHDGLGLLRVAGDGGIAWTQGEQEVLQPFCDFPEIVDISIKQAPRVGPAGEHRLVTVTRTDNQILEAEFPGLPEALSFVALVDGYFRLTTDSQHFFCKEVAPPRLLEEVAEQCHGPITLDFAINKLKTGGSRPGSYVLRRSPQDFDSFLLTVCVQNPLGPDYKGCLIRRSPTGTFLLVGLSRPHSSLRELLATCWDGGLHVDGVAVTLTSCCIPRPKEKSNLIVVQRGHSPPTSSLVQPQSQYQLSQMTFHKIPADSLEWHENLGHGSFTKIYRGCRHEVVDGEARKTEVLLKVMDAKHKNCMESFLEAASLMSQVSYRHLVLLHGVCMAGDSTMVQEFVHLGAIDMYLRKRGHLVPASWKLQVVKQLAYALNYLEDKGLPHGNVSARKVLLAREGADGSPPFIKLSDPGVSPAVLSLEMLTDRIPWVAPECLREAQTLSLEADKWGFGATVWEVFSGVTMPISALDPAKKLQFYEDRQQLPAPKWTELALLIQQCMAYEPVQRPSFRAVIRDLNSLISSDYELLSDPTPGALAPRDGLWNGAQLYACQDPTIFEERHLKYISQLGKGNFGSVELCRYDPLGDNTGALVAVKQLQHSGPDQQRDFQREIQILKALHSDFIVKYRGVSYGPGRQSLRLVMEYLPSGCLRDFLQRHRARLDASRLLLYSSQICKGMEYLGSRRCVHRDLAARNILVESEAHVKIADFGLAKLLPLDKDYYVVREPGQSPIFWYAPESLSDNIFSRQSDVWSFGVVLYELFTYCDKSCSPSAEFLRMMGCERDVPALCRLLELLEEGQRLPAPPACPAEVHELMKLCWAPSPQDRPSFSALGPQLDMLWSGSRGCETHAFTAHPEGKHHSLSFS
Method: (§1) The compounds of the present invention as described in the previous examples were tested in a Kinobeads™ assay as described for ZAP-70 (WO-A 2007/137867). Briefly, test compounds (at various concentrations) and the affinity matrix with the immobilized aminopyrido-pyrimidine ligand 24 were added to cell lysate aliquots and allowed to bind to the proteins in the lysate sample. After the incubation time the beads with captured proteins were separated from the lysate. Bound proteins were then eluted and the presence of JAK2 and JAK3 was detected and quantified using specific antibodies in a dot blot procedure and the Odyssey infrared detection system. Dose response curves for individual kinases were generated and IC50 values calculated. Kinobeads™ assays for ZAP-70 (WO-A 2007/137867) and for kinase selectivity profiling (WO-A 2006/134056) have been previously described.
(§2) The affinity matrix was washed two times with 15 mL of 1×DP buffer containing 0.2% NP40 (IGEPAL® CA-630, Sigma, #I3021) and then resuspended in 1×DP buffer containing 0.2% NP40 (3% beads slurry).
(§3) 5×DP buffer: 250 mM Tris-HCl pH 7.4, 25% Glycerol, 7.5 mM MgCl2, 750 mM NaCl, 5 mM Na3VO4; filter the 5×DP buffer through a 0.22 μm filter and store in aliquots at −80° C. The 5×DP buffer is diluted with H2O to 1×DP buffer containing 1 mM DTT and 25 mM NaF.
(§4) Stock solutions of test compounds were prepared in DMSO. In a 96 well plate 30 μL solution of diluted test compounds at 5 mM in DMSO were prepared. Starting with this solution a 1:3 dilution series (9 steps) was prepared. For control experiments (no test compound) a buffer containing 2% DMSO was used.
(§5) Molt4 cells (ATCC catalogue number CRL-1582) and Ramos cells (ATCC catalogue number CRL-1596) were grown in 1 L Spinner flasks (Integra Biosciences, #182101) in suspension in RPMI 1640 medium (Invitrogen, #21875-034) supplemented with 10% Fetal Bovine Serum (Invitrogen) at a density between 0.15×10^6 and 1.2×10^6 cells/mL. Cells were harvested by centrifugation, washed once with 1×PBS buffer (Invitrogen, #14190-094) and cell pellets were frozen in liquid nitrogen and subsequently stored at −80° C. Cells were homogenized in a Potter S homogenizer in lysis buffer: 50 mM Tris-HCl, 0.8% NP40, 5% glycerol, 150 mM NaCl, 1.5 mM MgCl2, 25 mM NaF, 1 mM sodium vanadate, 1 mM DTT, pH 7.5. One complete EDTA-free tablet (protease inhibitor cocktail, Roche Diagnostics, 1873580) per 25 mL buffer was added. The material was dounced 10 times using a mechanized POTTER S, transferred to 50 mL falcon tubes, incubated for 30 minutes on ice and spun down for 10 minutes at 20,000 g at 4° C. (10,000 rpm in Sorvall SLA600, precooled). The supernatant was transferred to an ultracentrifuge (UZ)-polycarbonate tube (Beckmann, 355654) and spun for 1 hour at 100.000 g at 4° C. (33.500 rpm in Ti50.2, precooled). The supernatant was transferred again to a fresh 50 mL falcon tube, the protein concentration was determined by a Bradford assay (BioRad) and samples containing 50 mg of protein per aliquot were prepared. The samples were immediately used for experiments or frozen in liquid nitrogen and stored frozen at −80° C.
(§6) Cell lysate (approximately 50 mg protein per plate) was thawed in a water bath at room temperature and then stored on ice. To the thawed cell lysate 1×DP 0.8% NP40 buffer containing protease inhibitors (1 tablet for 25 mL buffer; EDTA-free protease inhibitor cocktail; Roche Diagnostics 1873580) was added in order to reach a final protein concentration of 10 mg/mL total protein. The diluted cell lysate was stored on ice. Mixed Molt4/Ramos lysate was prepared by combining one volume of Molt4 lysate and two volumes of Ramos lysate (ratio 1:2).
(§7) To a 96 well filter plate (Multiscreen HTS, BV Filter Plates, Millipore #MSBVN1250) were added per well: 100 μL affinity matrix (3% beads slurry), 3 μL of compound solution, and 50 μL of diluted lysate. […]

JAK2 = target: T2, JAK2 (Homo sapiens, UniProt O60674); experiment: Kinobeads assay, JAK2 (dot blot detection); type: binding; details: mixed Molt4/Ramos lysate
T2 construct: endogenous in cells; host or cells: Molt4 (ATCC CRL-1582) and Ramos (ATCC CRL-1596) cell lysate, mixed 1:2
T2 sequence (O60674 whole entry): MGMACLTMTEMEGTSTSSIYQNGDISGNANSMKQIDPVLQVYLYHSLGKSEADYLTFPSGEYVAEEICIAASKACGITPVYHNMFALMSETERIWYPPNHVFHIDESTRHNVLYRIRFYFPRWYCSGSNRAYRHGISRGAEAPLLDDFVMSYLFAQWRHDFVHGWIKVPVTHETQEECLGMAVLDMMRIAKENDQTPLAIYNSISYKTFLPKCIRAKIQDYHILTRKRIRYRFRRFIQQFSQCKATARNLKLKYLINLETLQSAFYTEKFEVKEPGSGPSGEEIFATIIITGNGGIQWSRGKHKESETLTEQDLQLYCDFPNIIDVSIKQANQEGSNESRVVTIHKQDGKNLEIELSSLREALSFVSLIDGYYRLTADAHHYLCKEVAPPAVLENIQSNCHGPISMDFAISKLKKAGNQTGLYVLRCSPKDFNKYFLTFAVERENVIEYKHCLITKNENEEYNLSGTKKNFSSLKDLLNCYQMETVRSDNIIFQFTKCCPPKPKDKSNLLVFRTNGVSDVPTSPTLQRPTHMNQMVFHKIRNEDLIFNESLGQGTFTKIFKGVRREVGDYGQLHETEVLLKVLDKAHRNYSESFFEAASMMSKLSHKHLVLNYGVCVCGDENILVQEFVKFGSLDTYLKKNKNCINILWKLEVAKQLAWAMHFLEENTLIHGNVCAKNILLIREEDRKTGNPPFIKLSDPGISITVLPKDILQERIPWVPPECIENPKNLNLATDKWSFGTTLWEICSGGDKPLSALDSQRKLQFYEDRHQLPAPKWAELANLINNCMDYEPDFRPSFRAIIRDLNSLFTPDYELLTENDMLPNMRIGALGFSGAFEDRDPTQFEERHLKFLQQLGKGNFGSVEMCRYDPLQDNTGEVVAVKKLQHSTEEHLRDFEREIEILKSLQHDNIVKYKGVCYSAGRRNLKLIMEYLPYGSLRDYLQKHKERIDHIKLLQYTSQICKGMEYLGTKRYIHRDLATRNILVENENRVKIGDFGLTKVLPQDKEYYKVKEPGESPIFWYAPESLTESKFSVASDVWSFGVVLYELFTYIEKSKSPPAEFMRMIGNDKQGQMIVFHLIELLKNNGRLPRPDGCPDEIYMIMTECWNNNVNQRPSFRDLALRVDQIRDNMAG
Method: as §1, §2, §3, §4, §5, §6, §7

GVHD = details: reviewed in Cetkovic-Cvrlje and Ucken, 2004; cited from earlier work
[1] = test system: spontaneous autoimmune diabetes; details: NOD mouse model of type I diabetes; cited from earlier work

SMILES	IC50 (JAK3)	IC50 (JAK2)	efficacy in an animal model of organ transplantation (organ transplantation)	severity of GVHD (GVHD)	prevention of spontaneous autoimmune diabetes development [1]
C[C@@H]1CCN(C(=O)CC#N)C[C@@H]1N(C)c1ncnc2[nH]ccc12 [CP-690,550]			show efficacy		
COc1ccc(Nc2nc(Nc3cc(-n4cnnc4)ccc3OC)ncc2Cl)c(NS(C)(=O)=O)c1 [Example 11, N-(2-(5-chloro-2-(2-methoxy-5-(4H-1,2,4-triazol-4-yl)phenylamino)pyrimidin-4-ylamino)-5-methoxyphenyl)methanesulfonamide]	< 100 nM	1000 to 10000 nM			
Cc1ccc(C#N)cc1Nc1ncc(Cl)c(Nc2ccccc2NS(C)(=O)=O)n1 [Example 14, N-(2-(5-chloro-2-(5-cyano-2-methylphenylamino)pyrimidin-4-ylamino)phenyl)methanesulfonamide]	100 to 1000 nM	1000 to 10000 nM			
COc1ccc(C(=O)N2CCCCC2)cc1Nc1ncc(Cl)c(Nc2ccccc2NS(C)(=O)=O)n1 [Example 19, N-(2-(5-chloro-2-(2-methoxy-5-(piperidine-1-carbonyl)phenylamino)pyrimidin-4-ylamino)phenyl)methanesulfonamide]	100 to 1000 nM	≥ 10000 nM			
COc1ccc(C(=O)NC2CC2)cc1Nc1ncc(Cl)c(Nc2ccccc2NS(C)(=O)=O)n1 [Example 20]	< 100 nM				
Cc1ccc(C#N)cc1Nc1ncc(Cl)c(Nc2cccc(F)c2NS(C)(=O)=O)n1 [Example 23, N-(2-(5-chloro-2-(5-cyano-2-methylphenylamino)pyrimidin-4-ylamino)-6-fluorophenyl)methanesulfonamide]	1000 to 10000 nM	≥ 10000 nM			
CCS(=O)(=O)Nc1ccccc1Nc1nc(Nc2cc(C#N)ccc2OC)ncc1Cl [Example 25, N-(2-(5-chloro-2-(5-cyano-2-methoxyphenylamino)pyrimidin-4-ylamino)phenyl)ethanesulfonamide]	100 to 1000 nM	≥ 10000 nM			
CCNC(=O)c1ccc(OC)c(Nc2ncc(Cl)c(Nc3ccccc3NS(=O)(=O)CC)n2)c1 [Example 26, 3-(5-chloro-4-(2-(ethylsulfonamido)phenylamino)pyrimidin-2-ylamino)-N-ethyl-4-methoxybenzamide]	100 to 1000 nM	≥ 10000 nM			
COc1cc2ncnc(Nc3ccc(O)cc3)c2cc1OC [JANEX-1]				attenuate the severity of GVHD	prevent spontaneous autoimmune diabetes development

More lines, main results first:

IC50 (JAK3)	IC50 (JAK2)	SMILES	efficacy in an animal model of organ transplantation (organ transplantation)	severity of GVHD (GVHD)	prevention of spontaneous autoimmune diabetes development [1]
< 100 nM	1000 to 10000 nM	COc1ccc(Nc2nc(Nc3cc(-n4cnnn4)ccc3C)ncc2Cl)c(NS(C)(=O)=O)c1 [Example 12, N-(2-(5-chloro-2-(2-methyl-5-(1H-tetrazol-1-yl)phenylamino)pyrimidin-4-ylamino)-5-methoxyphenyl)methanesulfonamide]			
< 100 nM	100 to 1000 nM	COc1ccc(Nc2nc(Nc3cc(-n4cnnc4)ccc3C)ncc2Cl)c(NS(C)(=O)=O)c1 [Example 13, N-(2-(5-chloro-2-(2-methyl-5-(4H-1,2,4-triazol-4-yl)phenylamino)pyrimidin-4-ylamino)-5-methoxyphenyl)methanesulfonamide]			
100 to 1000 nM	≥ 10000 nM	CNC(=O)c1ccc(Cl)c(Nc2ncc(Cl)c(Nc3ccccc3NS(C)(=O)=O)n2)c1 [Example 16, 4-Chloro-3-(5-chloro-4-(2-(methylsulfonamido)phenylamino)pyrimidin-2-ylamino)-N-methylbenzamide]			
< 100 nM	≥ 10000 nM	CNC(=O)c1ccc(OC)c(Nc2ncc(Cl)c(Nc3ccccc3NS(C)(=O)=O)n2)c1 [Example 17, 3-(5-chloro-4-(2-(methylsulfonamido)phenylamino)pyrimidin-2-ylamino)-4-methoxy-N-methylbenzamide]			
< 100 nM		COc1ccc(C(=O)NC(C)C)cc1Nc1ncc(Cl)c(Nc2ccccc2NS(C)(=O)=O)n1 [Example 18]			
< 100 nM		CCNC(=O)c1ccc(OC)c(Nc2ncc(Cl)c(Nc3ccccc3NS(C)(=O)=O)n2)c1 [Example 21]			
100 to 1000 nM	≥ 10000 nM	Cc1ccc(C(=O)N(C)C)cc1Nc1ncc(Cl)c(Nc2ccccc2NS(C)(=O)=O)n1 [Example 24, 3-(5-chloro-4-(2-(methylsulfonamido)phenylamino)pyrimidin-2-ylamino)-N,N,4-trimethylbenzamide]			
100 to 1000 nM	≥ 10000 nM	CCS(=O)(=O)Nc1ccccc1Nc1nc(Nc2cc(C(=O)NC)ccc2OC)ncc1Cl [Example 27, 3-(5-chloro-4-(2-(ethylsulfonamido)phenylamino)pyrimidin-2-ylamino)-4-methoxy-N-methylbenzamide]			

From patent US20120172385A1, “ORTHO SUBSTITUTED PYRIMIDINE COMPOUNDS AS JAK INHIBITORS” (priority 2009, published 2012)
